Measured values as given in US20240147927A1, “METHODS OF HIGH PRODUCTION OF POLYPHENOLS FROM RED LETTUCES AND USES THEREOF” (SignalChem Plantech Corporation, priority 2021, published 2024).

How the values were obtained:
MCF7 cells = type: cell-based
Jurkat cells = type: cell-based
[1] = system: nitric oxide (NO) production in PMA-differentiated THP1 macrophages; assay: Nitric oxide (NO) production in LPS treated PMA-differentiated THP1 macrophages; type: cell-based, human; conditions: pre-treatment 2 h, then LPS 48 h
Method: Methods: […] Total nitrite was measured using nitric oxide colorimetric assay kit (BioVision, […]-200) according to the manufacturer's instructions. […] Untreated cells were used as the control. After incubation, cell cultures were then stimulated with LPS for an additional 48 h (total volume of 200 μl per well). The culture supernatant was collected from each well and replaced with 100 μl of fresh 1% FBS medium. […] 42.5 μL of cultured supernatant was used for measuring nitrite concentration. Total nitrite was measured using nitric oxide colorimetric assay kit according to the manufacturer's instructions.

THP1 cells = type: cell-based
[2] = system: IL-6 production in PMA-differentiated THP1 macrophages; assay: IL-6 production in LPS treated PMA-differentiated THP1 macrophages (ELISA); type: cell-based, human; conditions: 1.23, 3.7, 11.11, 33.33 and 100 μg/mL, then LPS 48 h
Method: (§1) Methods: […] THP1 monocytes were differentiated to macrophages using phorbol 12-myristate 13-acetate (PMA, Sigma, P1585). The […] The culture supernatant was collected from each well and replaced with 100 μl of fresh 1% FBS medium. […] 50 μl of cultured supernatant was used for measuring TNF-α and IL6 concentration. TNF-α was measured using human TNF-α DuoSet ELISA kit (R&D systems, DY210-05) and IL6 was determined using human IL6 DuoSet ELISA kit (R&D systems, DY206-05) according to the manufacturer's instructions. […] THP1 monocytes were differentiated to macrophages as previously described. […] Untreated cells were used as the control. After incubation, cell cultures were then stimulated with LPS for an additional 48 h (total volume of 200 μL per well). The culture supernatant was collected from each well and replaced with 100 μL of fresh 1% FBS medium. […] 50 μl of cultured supernatant was used for measuring TNF-α and IL6 concentration. TNF-α was measured using human TNF-α DuoSet ELISA kit and IL6 was determined using human IL6 DuoSet ELISA kit according to the manufacturer's instructions.

[3] = system: TNF-α production in PMA-differentiated THP1 macrophages; assay: TNF-α production in LPS treated PMA-differentiated THP1 macrophages (ELISA); type: cell-based, human; conditions: 1.23, 3.7, 11.11, 33.33 and 100 μg/mL, then LPS 48 h
Method: as §1

Row | SMILES | cytotoxicity towards MCF7 cell-line (MCF7 cells) | Jurkat, TC50 (Jurkat cells) | NO, EC50 [1] | cytotoxicity towards THP1 cell-line (THP1 cells) | effect on secretion of IL-6 [2] | effect on secretion of TNF-α [3]
1 | O=C(/C=C/c1ccc(O)c(O)c1)O[C@H]1[C@H](O)C[C@](O)(C(=O)O)C[C@H]1O [4-CQA, 4-O-caffeoylquinic acid] | did not appear to be individually cytotoxic | 49.9 µg/mL | 71.9 µg/mL | did not appear to be individually cytotoxic | minimal effects | minimal effects
2 | O=C(C=Cc1ccc(O)c(O)c1)O[C@@H](C(=O)O)[C@@H](OC(=O)C=Cc1ccc(O)c(O)c1)C(=O)O [Chicoric acid, (2R,3R)-O-dicaffeoyltartaric acid] | – | – | 25.3 µg/mL | – | minimal effects | minimal effects
3 | OC[C@H]1O[C@@H](Oc2cc3c(O)cc(O)cc3[o+]c2-c2ccc(O)c(O)c2)[C@H](O)[C@@H](O)[C@H]1O [Cyanidin 3-galactoside, cyanidin 3-galactoside] | did not appear to be individually cytotoxic | 53.5 µg/mL | 98.4 µg/mL | did not appear to be individually cytotoxic | minimal effects | minimal effects
4 | O=C(/C=C/c1ccc(O)c(O)c1)O[C@@H]1C[C@](O)(C(=O)O)C[C@@H](O)[C@H]1O [Neochlorogenic acid, 3-O-caffeoylquinic acid] | – | – | 80.5 µg/mL | – | minimal effects | minimal effects
